In patent publication US20110039763A1, “TARGETED ANTIMICROBIAL MOIETIES” (C3 JIAN, INC., priority 2009, published 2011):
“Also recorded” adds a separate entry of the source.

test system: microorganisms; experiment: Targeting peptide binding to target microorganisms (Tables 3, 10, 12); conditions: microorganism(s) the targeting peptide binds; binding in aqueous buffers varied with peptide solubility, preferably 1x PBS

| Substance | Target(s) |
| --- | --- |
| PF-155 (GRYGDDSKERQGRAQ; Peptide with targeting and/or antimicrobial activity) | C. jeikeium |
| PF-158 (VRLESRPADLPE; Peptide with targeting and/or antimicrobial activity) | S. epidermidis |
| PF-159 (TMAFVEKAQLRVPVGDDLPV; Peptide with targeting and/or antimicrobial activity) | S. epidermidis |
| PF-160 (SFHASLTKNEKPIKSTG; Peptide with targeting and/or antimicrobial activity) | S. epidermidis |
| PF-161 (RGRALASTATTRPARRRR; Peptide with targeting and/or antimicrobial activity) | S. epidermidis; also recorded: M. luteus; also recorded: E. coli; also recorded: C. jejuni |
| PF-162 (GIRRLHSVENLNREISHRMAGLR; Peptide with targeting and/or antimicrobial activity) | S. epidermidis and MRSA |
| PF-163 (TSWLRAAERQEIGEPTKTFGEKTTSL; Peptide with targeting and/or antimicrobial activity) | S. epidermidis |
| PF-165 (GPVSVVASLRRGTTVQRHSQNNHNKGKP; Peptide with targeting and/or antimicrobial activity) | MRSA and C. jejuni |
| PF-166 (SKAVSRKRSI; Peptide with targeting and/or antimicrobial activity) | E. coli; also recorded: C. jeikeium |
| PF-169 (APGSAADSPRSRADD; Peptide with targeting and/or antimicrobial activity) | S. epidermidis; also recorded: E. coli; also recorded: C. albicans; also recorded: E. faecalis; also recorded: C. jeikeium |
| PF-172 (LTGVRRPWRAPWAGTSGWALR; Peptide with targeting and/or antimicrobial activity) | S. epidermidis and M. luteus and E. coli and P. aeruginosa and MRSA and E. faecalis and C. jejuni |
| PF-174 (RGGDSPARRRPGLAGPGGPG; Peptide with targeting and/or antimicrobial activity) | S. epidermidis; also recorded: P. aeruginosa; also recorded: C. jeikeium |
| PF-177 (VTSEPGIAHDIRLLPRAAAFR; Peptide with targeting and/or antimicrobial activity) | M. luteus and MRSA and E. faecalis and C. jeikeium |
| PF-181 (GIAPRRNEWGAVGGR; Peptide with targeting and/or antimicrobial activity) | S. epidermidis and M. luteus and E. coli and MRSA and E. faecalis and C. jeikeium |
| PF-182 (LPATRDKTRVPASVAGAP; Peptide with targeting and/or antimicrobial activity) | S. epidermidis; also recorded: M. luteus; also recorded: E. coli; also recorded: E. faecalis; also recorded: C. jeikeium |
| PF-183 (KPGISVENRQ; Peptide with targeting and/or antimicrobial activity) | S. epidermidis and M. luteus and E. coli and C. albicans and MRSA and E. faecalis and C. jeikeium |
| PF-184 (LIADRHIRA; Peptide with targeting and/or antimicrobial activity) | S. epidermidis and M. luteus and E. coli and P. aeruginosa and C. albicans and MRSA and C. jeikeium |
| PF-185 (RPAQARQGPGGLIADRHIRA; Peptide with targeting and/or antimicrobial activity) | E. coli; also recorded: P. aeruginosa |
| PF-187 (EIQKIAKGVSGQVYGPSRQITISKKR; Peptide with targeting and/or antimicrobial activity) | S. epidermidis and M. luteus and E. coli and MRSA |
| PF-189 (GNLTRSREAARATQ; Peptide with targeting and/or antimicrobial activity) | S. epidermidis and M. luteus and C. albicans and MRSA and E. faecalis and C. jejuni |
| PF-193 (PPHCPPGHAKKGWC; Peptide with targeting and/or antimicrobial activity) | S. epidermidis and M. luteus and E. coli and MRSA and E. faecalis and C. jejuni |
| PF-194 (MKGNKLATAHEQPVKNSAPPL; Peptide with targeting and/or antimicrobial activity) | C. jeikeium |
| PF-195 (EMAEGSADDRLRKTPRDC; Peptide with targeting and/or antimicrobial activity) | S. epidermidis; also recorded: M. luteus; also recorded: E. faecalis; also recorded: C. jeikeium |
| PF-197 (CNALLRRGHPPSAL; Peptide with targeting and/or antimicrobial activity) | S. epidermidis; also recorded: M. luteus; also recorded: C. albicans; also recorded: E. faecalis; also recorded: C. jejuni |
| PF-200 (GIELKSLIMAQIERWRQA; Peptide with targeting and/or antimicrobial activity) | S. epidermidis and M. luteus and MRSA and E. faecalis and C. jeikeium |

| Substance | Target(s) |
| --- | --- |
| PF-201 (GCRPASLSDADPDGR; Peptide with targeting and/or antimicrobial activity) | S. epidermidis; also recorded: M. luteus; also recorded: E. coli; also recorded: C. albicans; also recorded: E. faecalis; also recorded: C. jeikeium; also recorded: C. jejuni |
| PF-202 (ALNRASLRLALGE; Peptide with targeting and/or antimicrobial activity) | S. epidermidis and M. luteus and E. coli and MRSA and E. faecalis and C. jeikeium and C. jejuni |
| PF-206 (KLRSASKKSLQEKSCGIMPEKPAG; Peptide with targeting and/or antimicrobial activity) | M. luteus; also recorded: C. albicans; also recorded: C. jeikeium; also recorded: C. jejuni |
| PF-207 (AAGCRDLGSLSSLVTNPS; Peptide with targeting and/or antimicrobial activity) | M. luteus; also recorded: C. jeikeium |
| PF-210 (EREDGCDAMPLP; Peptide with targeting and/or antimicrobial activity) | S. epidermidis and P. aeruginosa and C. albicans and MRSA and E. faecalis and C. jeikeium and C. jejuni |
| PF-213 (MTTGVDFIIEKV; Peptide with targeting and/or antimicrobial activity) | S. epidermidis |
| PF-214 (GHLRVCWVFSASLLTPFRSATLI; Peptide with targeting and/or antimicrobial activity) | S. mutans; also recorded: S. epidermidis; also recorded: M. luteus; also recorded: E. coli; also recorded: P. aeruginosa; also recorded: A. baumannii |
| PF-216 (ESVDKITEALEEDGFPAKVQ; Peptide with targeting and/or antimicrobial activity) | S. mutans; also recorded: E. coli |
| PF-217 (DWEFTHKTIPQKK; Peptide with targeting and/or antimicrobial activity) | S. mutans |
| PF-218 (SETPEKPVGTFFYSIYYKIIL; Peptide with targeting and/or antimicrobial activity) | S. epidermidis; also recorded: M. luteus; also recorded: P. aeruginosa; also recorded: A. baumannii |
| PF-219 (FLALAVIAGLFKVILIYAAPYLK; Peptide with targeting and/or antimicrobial activity) | S. epidermidis; also recorded: M. luteus; also recorded: P. aeruginosa; also recorded: A. baumannii |
| PF-221 (VFDNIDINF; Peptide with targeting and/or antimicrobial activity) | S. epidermidis; also recorded: M. luteus; also recorded: P. aeruginosa |
| PF-223 (VKFCIECQTKLERKRR; Peptide with targeting and/or antimicrobial activity) | S. epidermidis; also recorded: M. luteus; also recorded: A. baumannii |
| PF-225 (MNCASPEFKKLMELYK; Peptide with targeting and/or antimicrobial activity) | S. epidermidis |
| PF-228 (NQLGSQAFAQL; Peptide with targeting and/or antimicrobial activity) | S. mutans |
| PF-229 (DPILIQIGFTRFALRKAEAEKIEIQVEEGVPA; Peptide with targeting and/or antimicrobial activity) | S. epidermidis; also recorded: M. luteus; also recorded: P. aeruginosa; also recorded: A. baumannii |
| PF-230 (EDKPTNTIQEIKPVKWQ; Peptide with targeting and/or antimicrobial activity) | S. mutans |
| PF-231 (AVRDFKKSVREEDEAASLNSPRTIDAQVKTSESTSVKS; Peptide with targeting and/or antimicrobial activity) | S. mutans |
| PF-232 (FDQLYALEREGKLDELLA; Peptide with targeting and/or antimicrobial activity) | S. epidermidis; also recorded: M. luteus |
| PF-236 (KEIRTATVAELNAKRRLTSAEQALAEVS; Peptide with targeting and/or antimicrobial activity) | S. mutans; also recorded: S. epidermidis; also recorded: E. coli; also recorded: C. albicans; also recorded: S. pneumoniae; also recorded: E. faecalis |
| PF-237 (YVKPKVGVHE; Peptide with targeting and/or antimicrobial activity) | S. epidermidis |
| PF-238 (RNAVVVTEATFPKYEEEITNYLNRRFGEDWSLKLEKCSVA; Peptide with targeting and/or antimicrobial activity) | S. mutans and S. epidermidis and E. coli and P. aeruginosa and C. albicans and MRSA and S. pneumoniae and E. faecalis |
| PF-239 (PKHNVVTGVSVDLDYKP; Peptide with targeting and/or antimicrobial activity) | S. mutans; also recorded: E. coli |
| PF-240 (RITEVPPDEHSDR; Peptide with targeting and/or antimicrobial activity) | S. mutans; also recorded: E. coli |
| PF-242 (KLFEDPLIKSKAVENFQTTWHEQCLAKELAKNM; Peptide with targeting and/or antimicrobial activity) | S. mutans; also recorded: E. coli |
